Measurements: patent US20250059174A1, “Pharmaceutical Compounds and Compositions as C-Kit Kinase Inhibitors” (Enanta Pharmaceuticals, Inc., priority 2023, published 2025)

Tested on: M-07e cells
Experiment: M-07e cellular assay (SCF-mediated cell proliferation)
Format: cell-based
Conditions: Homo sapiens, 72 hours, CellTiter Glo
Outline: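 EC50 values reflect inhibition of SCF-driven proliferation, with SCF at EC90 and a 72 h compound exposure, measured as CellTiter Glo luminescence. Growth is scaled between no-SCF (0%) and untreated (100%) wells.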

| Compound | EC50 |
| --- | --- |
| Cc1ccc(-c2noc(C3CN(C(=O)[C@H]4C[C@@H]4F)C3)n2)cc1NC(=O)c1cnn2ccc(N3CC4(C3)CC(O)(C(F)F)C4)cc12 [Example 281-34] | 100 to 1000 nM |
| Cc1ccc(-c2ncc(C3CC3)cn2)cc1NC(=O)c1cnn2cc(-c3cn(CC(C)(C)O)nn3)ccc12 [Example 132-14] | < 100 nM |
| Cc1ccc(-c2nccc(C3CC3)n2)cc1NC(=O)c1cnn2ccc(N3CC4(COC4)C3)cc12 [Example 334] | < 100 nM |
| Cc1ncc(-c2noc([C@H]3C[C@](O)(C(F)(F)F)C3)n2)cc1NC(=O)c1cnn2ccc(N3CC4(C3)CC(O)(C(F)F)C4)cc12 [Example 281-38] | < 100 nM |
| Cc1ccc(-c2noc([C@H]3C[C@@H]3F)n2)cc1NC(=O)c1cnn2cc(-c3cn(C(F)(F)F)nn3)ccc12 [Example 113] | < 100 nM |
| Cc1ccc(-c2noc([C@H]3C[C@@H](OC(F)(F)F)C3)n2)cc1NC(=O)c1cnn2ccc(N3CC4(C3)CC(O)(C(F)(F)F)C4)cc12 [Example 281-23] | < 100 nM |
| Cc1ccc(-c2noc([C@H]3C[C@@H]3F)n2)cc1NC(=O)c1cnn2cc(-c3cn(CC(F)(F)F)nn3)ccc12 [Example 112] | < 100 nM |
| Cc1ccc(-c2noc([C@H]3C[C@@H]3F)n2)cc1NC(=O)c1cnn2ccc(NC(=O)NC3CC3)cc12 [Example 96] | 100 to 1000 nM |
| Cc1ncc(-c2noc([C@H]3C[C@@H](OC(F)(F)F)C3)n2)cc1NC(=O)c1cnn2cc(-c3cn(CC4(C)COC4)nn3)ccc12 [Example 132-12] | < 100 nM |
| Cc1ccc(-c2noc([C@H]3C[C@@H](OC(F)(F)F)C3)n2)cc1NC(=O)c1cnn2ccc(N3CC4(CCN(CC(F)(F)F)C4)C3)cc12 [Example 252] | 100 to 1000 nM |
| Cc1ccc(-c2noc([C@H]3C[C@@H]3F)n2)cc1NC(=O)c1cnn2ccc(N3CC4(CCN4)C3)cc12 [Example 239] | 100 to 1000 nM |
| Cc1ccc(-c2noc([C@H]3C[C@@H]3F)n2)cc1NC(=O)c1cnc(-c2ccc3nnn(C)c3c2)o1 [Example 308-46] | 100 to 1000 nM |
| Cc1ccc(-c2noc([C@H]3C[C@@H]3F)n2)cc1NC(=O)c1cn2ncsc2n1 [Example 97] | > 1000 nM |
| Cc1ccc(-c2noc([C@H]3C[C@@H]3F)n2)cc1NC(=O)c1cnn2ccc(N3CC4(C3)CN(S(C)(=O)=O)C4)cc12 [Example 241-1] | < 100 nM |
| Cc1ccc(-c2noc([C@H]3C[C@@H]3F)n2)cc1NC(=O)c1cnc(-c2ccc3c(c2)CC(=O)N3C)o1 [Example 308-55] | 100 to 1000 nM |
| Cc1ccc(-c2noc([C@H]3C[C@@H]3F)n2)cc1NC(=O)c1cnc(-c2ccc3[nH]c(=O)oc3c2)o1 [Example 300] | 100 to 1000 nM |
| Cc1ccc(-c2noc(N3CCOCC3)n2)cc1NC(=O)c1cnn2ccc(N3CC4(COC4)C3)cc12 [Example 281-83] | < 100 nM |
| Cc1ncc(-c2noc([C@H]3CN(CC(F)(F)F)[C@@H]3C)n2)cc1NC(=O)c1cnn2ccc(N3CC4(C3)CC(O)(C(F)F)C4)cc12 [Example 281-9] | 100 to 1000 nM |
| Cc1ncc(-c2noc(C3CN(C(=O)C4(F)CC4)C3)n2)cc1NC(=O)c1cnn2ccc(N3CC4(COC4)C3)cc12 [Example 281-85] | 100 to 1000 nM |
| O=C(Nc1cc(-c2noc([C@H]3C[C@@H]3F)n2)ccc1C1CC1)c1cnn2ccc(N3CC4(COC4)C3)cc12 [Example 281-94] | > 1000 nM |
| Cc1cc(C)c(-c2ccn3ncc(C(=O)Nc4cc(-c5noc([C@H]6C[C@@H](OC(F)(F)F)C6)n5)ccc4C)c3c2)c(C)c1 [Example 171-3] | > 1000 nM |
| Cc1ccc(-c2noc([C@H]3C[C@@H]3F)n2)cc1NC(=O)c1cnc(-c2ccc3c(c2)C2(CC2)C(=O)N3)o1 [Example 308-4] | 100 to 1000 nM |
| Cc1ccc(-c2noc([C@H]3C[C@@H]4[C@H](C3)C4(F)F)n2)cc1NC(=O)c1cnn2ccc(N3CC4(COC4)C3)cc12 [Example 280] | < 100 nM |
| Cc1ccc(-c2noc([C@H]3C[C@@H]3F)n2)cc1NC(=O)c1cnn2ccc(CO)cc12 [Example 72] | 100 to 1000 nM |
| Cc1ncc(C(=O)Nc2cc(-c3noc([C@H]4C[C@@H]4F)n3)ccc2C)s1 [Example 34] | > 1000 nM |
| Cc1ccc(-c2noc([C@H]3C[C@@H]3F)n2)cc1NC(=O)c1n[nH]c2ncccc12 [Example 40] | > 1000 nM |
| Cc1ccc(-c2noc([C@H]3C[C@@H]3F)n2)cc1NC(=O)c1cnn2ccc(N3CCC34COC4)cc12 [Example 176] | < 100 nM |

Target: Recombinant human c-KIT kinase (Homo sapiens (Human), UniProt P10721)
Experiment: c-KIT kinase chemiluminescence assay (ADP-Glo)
Format: biochemical
Conditions: ATP 50 μM
Outline: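 Recombinant human c-KIT preincubated 30 min at RT in 40 mM Tris pH 7.5, 20 mM MgCl2, 0.1 mg/mL BSA, 50 μM DTT, then reacted 2 h at RT with ATP and polyEY substrate. ADP-Glo luminescence readout; activity normalized to high/low controls, IC50 and Hill coefficient from inhibitor-versus-normalized-response fit.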

Sequence of Recombinant human c-KIT kinase (P10721 26-976): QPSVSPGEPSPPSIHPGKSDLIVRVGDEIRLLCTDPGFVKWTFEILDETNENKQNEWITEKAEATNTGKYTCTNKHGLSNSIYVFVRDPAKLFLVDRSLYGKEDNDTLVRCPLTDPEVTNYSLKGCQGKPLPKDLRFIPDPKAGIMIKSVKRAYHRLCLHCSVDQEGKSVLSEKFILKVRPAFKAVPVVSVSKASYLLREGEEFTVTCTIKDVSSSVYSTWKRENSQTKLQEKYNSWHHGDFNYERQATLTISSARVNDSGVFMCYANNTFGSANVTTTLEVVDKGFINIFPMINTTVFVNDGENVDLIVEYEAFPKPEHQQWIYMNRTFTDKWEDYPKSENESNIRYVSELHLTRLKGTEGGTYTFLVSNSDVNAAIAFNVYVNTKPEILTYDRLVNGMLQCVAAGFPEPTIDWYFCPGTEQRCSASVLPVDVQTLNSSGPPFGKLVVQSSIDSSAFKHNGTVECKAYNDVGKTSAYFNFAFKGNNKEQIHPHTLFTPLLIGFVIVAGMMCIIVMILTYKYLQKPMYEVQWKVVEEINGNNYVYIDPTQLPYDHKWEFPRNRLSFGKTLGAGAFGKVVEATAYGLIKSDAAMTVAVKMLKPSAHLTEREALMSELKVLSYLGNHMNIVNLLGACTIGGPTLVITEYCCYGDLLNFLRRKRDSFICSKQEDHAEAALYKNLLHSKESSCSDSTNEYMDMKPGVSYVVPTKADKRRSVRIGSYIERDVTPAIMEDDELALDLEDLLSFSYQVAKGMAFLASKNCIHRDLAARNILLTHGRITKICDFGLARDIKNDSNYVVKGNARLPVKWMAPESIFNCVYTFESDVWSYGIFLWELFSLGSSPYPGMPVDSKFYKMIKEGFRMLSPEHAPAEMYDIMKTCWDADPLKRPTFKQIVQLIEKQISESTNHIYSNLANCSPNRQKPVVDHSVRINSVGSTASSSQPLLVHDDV

| Compound | IC50 |
| --- | --- |
| Cc1ccc(-c2ncc(C3CC3)cn2)cc1NC(=O)c1cnn2cc(-c3cn(CC(C)(C)O)nn3)ccc12 [Example 132-14] | < 100 nM |
| Cc1ccc(-c2nccc(C3CC3)n2)cc1NC(=O)c1cnn2ccc(N3CC4(COC4)C3)cc12 [Example 334] | 100 to 1000 nM |
| Cc1ncc(-c2noc([C@H]3C[C@](O)(C(F)(F)F)C3)n2)cc1NC(=O)c1cnn2ccc(N3CC4(C3)CC(O)(C(F)F)C4)cc12 [Example 281-38] | 100 to 1000 nM |
| Cc1ccc(-c2noc([C@H]3C[C@@H](OC(F)(F)F)C3)n2)cc1NC(=O)c1cnn2ccc(N3CC4(C3)CC(O)(C(F)(F)F)C4)cc12 [Example 281-23] | < 100 nM |
| Cc1ccc(-c2noc([C@H]3C[C@@H]3F)n2)cc1NC(=O)c1cnn2ccc(NC(=O)NC3CC3)cc12 [Example 96] | 100 to 1000 nM |
| Cc1ccc(-c2noc([C@H]3C[C@@H]3F)n2)cc1NC(=O)c1cnn2ccc(N3CC4(CCN4)C3)cc12 [Example 239] | < 100 nM |
| Cc1ccc(-c2noc([C@H]3C[C@@H]3F)n2)cc1NC(=O)c1cnc(-c2ccc3nnn(C)c3c2)o1 [Example 308-46] | 100 to 1000 nM |
| Cc1ccc(-c2noc([C@H]3C[C@@H]3F)n2)cc1NC(=O)c1cn2ncsc2n1 [Example 97] | > 1000 nM |
| Cc1ccc(-c2noc([C@H]3C[C@@H]3F)n2)cc1NC(=O)c1cnn2ccc(N3CC4(C3)CN(S(C)(=O)=O)C4)cc12 [Example 241-1] | < 100 nM |
| Cc1ccc(-c2noc([C@H]3C[C@@H]3F)n2)cc1NC(=O)c1cnc(-c2ccc3c(c2)CC(=O)N3C)o1 [Example 308-55] | 100 to 1000 nM |
| Cc1ccc(-c2noc([C@H]3C[C@@H]3F)n2)cc1NC(=O)c1cnc(-c2ccc3[nH]c(=O)oc3c2)o1 [Example 300] | 100 to 1000 nM |
| Cc1ccc(-c2noc(N3CCOCC3)n2)cc1NC(=O)c1cnn2ccc(N3CC4(COC4)C3)cc12 [Example 281-83] | 100 to 1000 nM |
| Cc1ncc(-c2noc([C@H]3CN(CC(F)(F)F)[C@@H]3C)n2)cc1NC(=O)c1cnn2ccc(N3CC4(C3)CC(O)(C(F)F)C4)cc12 [Example 281-9] | 100 to 1000 nM |
| O=C(Nc1cc(-c2noc([C@H]3C[C@@H]3F)n2)ccc1C1CC1)c1cnn2ccc(N3CC4(COC4)C3)cc12 [Example 281-94] | > 1000 nM |
| Cc1ccc(-c2noc([C@H]3C[C@@H]4[C@H](C3)C4(F)F)n2)cc1NC(=O)c1cnn2ccc(N3CC4(COC4)C3)cc12 [Example 280] | < 100 nM |
| Cc1ncc(C(=O)Nc2cc(-c3noc([C@H]4C[C@@H]4F)n3)ccc2C)s1 [Example 34] | > 1000 nM |
| Cc1ccc(-c2noc([C@H]3C[C@@H]3F)n2)cc1NC(=O)c1n[nH]c2ncccc12 [Example 40] | > 1000 nM |
| Cc1ccc(-c2noc([C@H]3C[C@@H]3F)n2)cc1NC(=O)c1cnn2ccc(N3CCC34COC4)cc12 [Example 176] | < 100 nM |

Other lines, results leading:

| IC50 | Compound |
| --- | --- |
| 100 to 1000 nM | Cc1ccc(-c2noc(C3CN(C(=O)[C@H]4C[C@@H]4F)C3)n2)cc1NC(=O)c1cnn2ccc(N3CC4(C3)CC(O)(C(F)F)C4)cc12 [Example 281-34] |
| < 100 nM | Cc1ccc(-c2noc([C@H]3C[C@@H]3F)n2)cc1NC(=O)c1cnn2cc(-c3cn(C(F)(F)F)nn3)ccc12 [Example 113] |
| < 100 nM | Cc1ccc(-c2noc([C@H]3C[C@@H]3F)n2)cc1NC(=O)c1cnn2cc(-c3cn(CC(F)(F)F)nn3)ccc12 [Example 112] |
| < 100 nM | Cc1ncc(-c2noc([C@H]3C[C@@H](OC(F)(F)F)C3)n2)cc1NC(=O)c1cnn2cc(-c3cn(CC4(C)COC4)nn3)ccc12 [Example 132-12] |
| 100 to 1000 nM | Cc1ccc(-c2noc([C@H]3C[C@@H](OC(F)(F)F)C3)n2)cc1NC(=O)c1cnn2ccc(N3CC4(CCN(CC(F)(F)F)C4)C3)cc12 [Example 252] |
| > 1000 nM | Cc1ncc(-c2noc(C3CN(C(=O)C4(F)CC4)C3)n2)cc1NC(=O)c1cnn2ccc(N3CC4(COC4)C3)cc12 [Example 281-85] |
| > 1000 nM | Cc1cc(C)c(-c2ccn3ncc(C(=O)Nc4cc(-c5noc([C@H]6C[C@@H](OC(F)(F)F)C6)n5)ccc4C)c3c2)c(C)c1 [Example 171-3] |
| 100 to 1000 nM | Cc1ccc(-c2noc([C@H]3C[C@@H]3F)n2)cc1NC(=O)c1cnc(-c2ccc3c(c2)C2(CC2)C(=O)N3)o1 [Example 308-4] |
| < 100 nM | Cc1ccc(-c2noc([C@H]3C[C@@H]3F)n2)cc1NC(=O)c1cnn2ccc(CO)cc12 [Example 72] |
